assay: Solubility of the complex in water and alcohols; format: physicochemical; conditions: methanol, ethanol, water/alcohol mixture

Solubility in methanol, ethanol and water/alcohol mixture, in words | SMILES
excellent solubility | CC(C)c1cccc(C(C)C)c1N1CCN(c2c(C(C)C)cccc2C(C)C)[CH]1[Ru]([Cl])([Cl])=[CH]c1ccccc1OC1CC[N+](C)(C)CC1 [Complex 48]

same assay, conditions: neat / pure water

Solubility in water, in words | SMILES
Insoluble | CC(C)c1cccc(C(C)C)c1N1CCN(c2c(C(C)C)cccc2C(C)C)[CH]1[Ru]([Cl])([Cl])=[CH]c1ccccc1OC1CC[N+](C)(C)CC1 [Complex 48]

same assay, conditions: water

SMILES | Water solubility [µg/mL]
CC[N+]1(C)CCN(CC2CN(c3c(C)cc(C)cc3C)[CH]([Ru]([Cl])([Cl])=[CH]c3ccccc3OC3CC[N+](C)(C)CC3)N2c2c(C)cc(C)cc2C)CC1 (stereo not drawn) [Complex 53] | 35000
Cc1cc(C)c(N2CC(C[N+](C)(C)C)N(c3c(C)cc(C)cc3C)[CH]2[Ru]([Cl])([Cl])=[CH]c2cc([N+](=O)[O-])ccc2OC(C)C)c(C)c1 (stereo not drawn) [Complex 50] | 3000
Cc1cc(C)c(N2CC(C[N+](C)(C)C)N(c3c(C)cc(C)cc3C)[CH]2[Ru]([Cl])([Cl])=[CH]c2ccccc2OC2CC[N+](C)(C)CC2)c(C)c1 (stereo not drawn) [Complex 51] | 35000
CC[N+]1(C)CCN(CC2CN(c3c(C)cc(C)cc3C)[CH]([Ru]([Cl])([Cl])=[CH]c3ccccc3OC(C)C)N2c2c(C)cc(C)cc2C)CC1 (stereo not drawn) [Complex 52] | 3000

Further lines, results first:

Water solubility [µg/mL] | SMILES
1000 | Cc1cc(C)c(N2CCN(c3c(C)cc(C)cc3C)[CH]2[Ru]([Cl])([Cl])=[CH]c2cc([N+](C)(C)C)ccc2OC(C)C)c(C)c1 [Complex 56]
2000 | CC(C)Oc1ccccc1[CH]=[Ru]([Cl])([Cl])[CH]1N(c2c(C(C)C)cc(C[N+]3(C)CCOCC3)cc2C(C)C)CCN1c1c(C(C)C)cc(C[N+]2(C)CCOCC2)cc1C(C)C [Complex 54]
65000 | CC(C)c1cc(C[N+]2(C)CCOCC2)cc(C(C)C)c1N1CCN(c2c(C(C)C)cc(C[N+]3(C)CCOCC3)cc2C(C)C)[CH]1[Ru]([Cl])([Cl])=[CH]c1ccccc1OC1CC[N+](C)(C)CC1 [Complex 55]

Reference: patent US9371345B2, “Metathesis catalysts containing onium groups” (Apeiron Synthesis S.A., priority 2012, dated 2016)
